According to patent US7064190B1, “Antigen-specific, activated T lymphocytes, detection and use” (Roche Diagnostics GmbH, priority 1994, dated 2006):

Columns and labels:
Format in all cases: cell-based, human
[1] = tested on: T cell line 6/10; experiment: Proliferation test with variants of the peptide 5G1 using the T cell line 6/10; details: for Stimulation index: TCL 6/10, variants of peptide 5G1
Procedure: In order to elucidate the core structure of the stimulating peptide 5G1, proliferation tests were carried out with various variants of this peptide using the T cell line 6/10 (see Table 4).
A test with a first series of 20 mer variants is intended to ascertain whether amino acids which border on the 5G1 structure at the C- or N-terminus play a role in the recognition by the T cell line 6/10. […] A 6 amino acid shift towards the N-terminus leads to a loss in stimulation capacity.
A test with a second series of peptide variants examines the influence of a shortening at the C-terminus.
The object of a test with a third series of peptide variants was to define the N-terminus of the minimum stimulation-active peptide. If the amino acids leucine (L) and proline (P) are removed from a 18 mer with an intact C-terminus, this leads to a strong decrease of the stimulation index. The N-terminus is thus defined by L and P. If the […] is shortened further by H and F this also leads to a loss of stimulation activity.

[2] = tested on: T cell line 6/7; experiment: T cell proliferation with peptides using PBLs of various haplotypes as antigen-presenting cells, TCL 6/7; details: for SI (stimulation index): TCL 6/7
Procedure: (§1) The experimental procedure is analogous to example 1.3. […] The proliferation tests were carried out using the autoantigenic peptides 5G1 (corresponding to amino acids 266–285 of human GAD65) and 5F3 (corresponding to amino acids 306–325 of human GAD65).
(§2) T cell proliferation after stimulation with the peptides 5G1 and 5F3 using PBLs with various haplotypes as antigen-presenting cells

[3] = tested on: T cell line 6/10; experiment: T cell proliferation with peptides using PBLs of various haplotypes as antigen-presenting cells, TCL 6/10; details: for proliferation in the presence of the DR B1 allele 0401: T cell line 6/10; for SI (stimulation index): TCL 6/10
Procedure: as §1, §2

[4] = tested on: T cell line 6/10; experiment: Proliferation test with peptides derived from the H-GAD sequence, T cell line 6/10; details: 10 μg/ml individual peptides from pools 7 and 11, FIG. 6
Procedure: (§3) Autologous PBLs or PBLs of a normal donor which are identical with regard to the HLA class II antigens are used as stimulator cells. The PBLs are pre-incubated with antigen as described in paragraph 2, irradiated with 4000 rad and distributed in 96 well plates (100 000 cells/well).
(§4) After 3–4 days at 37° C./7% CO2, 1 μCi ^3H-thymidine is added and incubated for a further 16–20 hours. Afterwards the cells are transferred onto a glass fibre filter by means of a cell harvester instrument and the incorporated radioactivity is determined in a β counter.
(§5) T cell lines that had been expanded by means of at least 4 restimulation cycles and which reacted with SW-GAD in the proliferation test were additionally tested with overlapping peptides of H-GAD. The object of these experiments is to define the epitopes of H-GAD that are recognized by the T cells. For this, overlapping 20 mer peptides of H-GAD are firstly synthesized (overlapping region 10 amino acids, total of 59 different peptides).
(§6) […] The further treatment of these stimulator cells is carried out as described in section 3a.
(§7) Subsequently 6000–20,000 T cells are added per microculture well. The further procedure is analogous to that described in section 3b.

[5] = tested on: T cell line 6/7; experiment: Proliferation test with peptides derived from the H-GAD sequence, T cell line 6/7; details: 10 μg/ml individual peptides from pools 7 and 11, FIG. 5
Procedure: as §3, §4, §5, §6, §7

[6] = tested on: T cell line 6/7; experiment: Proliferation test with SW-GAD, T cell line 6/7; details: stimulator PBLs pulsed with SW-GAD
Procedure: (§8) The first restimulation is carried out on the 14th day after the beginning of the primary stimulation. For this, in comparison to the primary stimulation, double the number of autologous PBLs is isolated by means of Ficoll and adjusted in culture medium to a cell concentration of 2×10^6/ml. One half of these stimulator cells is incubated for 2 hours/37° C./7% CO2 with the antigen SW-GAD (final concentration 5 μg/ml) (antigen pulse). The other half is incubated under the same conditions without antigen and only with culture medium. Subsequently all stimulator cells are irradiated with 4000 rad. The stimulator cells are then distributed (100 000 cells/well) in 96 well round-bottom plates in such a way that a well with stimulator cells containing antigen is always adjacent to a well with stimulator cells without antigen.
(§9) All tests are carried out in at least duplicate preparations.
(§10) Autologous PBLs or PBLs of a normal donor which are identical with regard to the HLA class II antigens are used as stimulator cells. […]
as §4

[7] = tested on: T cell line 6/10; experiment: Proliferation test with SW-GAD, T cell line 6/10; details: stimulator PBLs pulsed with SW-GAD
Procedure: as §8, §9, §10, §4

[8] = APC donor four (DR B1 0301/0401)
[9] = APC donor one (DR B1 1302/0401)
[10] = APC donor three (DR B1 0301/0404)
[11] = APC donor two (DR B1 0101/1601)

PEVKEKGMAALPRLIAFTSE [SEQ ID NO:8]
Stimulation index [1]: 0.6

ERGKMIPSDLERRILEAKQK (ERGKMIPSDLERRILEAKQK) [5F3, corresponding to amino acids 306–325 of human GAD 65]
proliferation in the presence of the DR B1 allele 0401 ([2]; T cell line 6/7): proliferation in the presence of the DR B1 allele 0401 is found
SI (stimulation index) ([2]; APC donor 19 (DR B1 0301/0401)): 3.1
SI (stimulation index) [2, 8]: 3.8
SI (stimulation index) [2, 9]: 7.0
SI (stimulation index) [2, 10]: 0.6
SI (stimulation index) [2, 11]: 1.2
proliferation in the presence of the DR B1 allele 0401 [3]: proliferates
SI (stimulation index) ([3]; APC donor 19 (DR B1 0301/0401)): 2.8
SI (stimulation index) [3, 8]: 3.8
SI (stimulation index) [3, 9]: 6.5
SI (stimulation index) [3, 10]: 1.5
SI (stimulation index) [3, 11]: 1.4
proliferation with individual peptides [4]: smaller but significant proliferation
proliferation with individual peptides [5]: smaller but significant proliferation

LPRLIAFTSEHSHFSLKK [SEQ ID NO:15]
Stimulation index [1]: 3.2

RLIAFTSEHSHFSL [SEQ ID NO:16]
Stimulation index [1]: 1.4

AALPRLIAFTSE [SEQ ID NO:12]
Stimulation index [1]: 0.6

GMAALPRLIAFTSEHSHFSL [5G1, corresponding to amino acids 266–285 of human GAD 65]
Stimulation index [1]: 5.4
recognition in association with the alleles DR B1 0101 or/and 1601 ([2]; T cell line 6/7): recognizes
SI (stimulation index) ([2]; APC donor 19 (DR B1 0301/0401)): 45.7
SI (stimulation index) [2, 8]: 55.0
SI (stimulation index) [2, 9]: 67.8
SI (stimulation index) [2, 10]: 0.9
SI (stimulation index) [2, 11]: 28.6
SI (stimulation index) ([3]; APC donor 19 (DR B1 0301/0401)): 8.5
SI (stimulation index) [3, 8]: 6.0
SI (stimulation index) [3, 9]: 22.6
SI (stimulation index) [3, 10]: 1.5
SI (stimulation index) [3, 11]: 2.2
proliferation with individual peptides [4]: significant proliferation
proliferation with individual peptides [5]: significant proliferation

LPRLIAFTSEHSHF [SEQ ID NO:17]
stimulation capacity of 5G1 variants ([1]; T cell line 6/10): minimum peptide that can still stimulate
Stimulation index [1]: 4.6

GMAALPRLIAFT [SEQ ID NO:14]
Stimulation index [1]: 1.0

RLIAFTSEHSHFSLKKGAAA [SEQ ID NO:7]
Stimulation index [1]: 3.2

AALPRLIAFTSEHSHFSL [SEQ ID NO:9]
Stimulation index [1]: 4.5

GMAALPRLIAFTSE [SEQ ID NO:13]
Stimulation index [1]: 0.8

AALPRLIAFTSEHSHF [SEQ ID NO:10]
Stimulation index [1]: 2.9

ALPRLIAFTSEHSHFSLKKG [SEQ ID NO:6]
Stimulation index [1]: 3.0

LPRLIAFTSEHS [SEQ ID NO:18]
Stimulation index [1]: 0.4

AALPRLIAFTSEHS [SEQ ID NO:11]
Stimulation index [1]: 0.7

GMAALPRLIAFTSEHSHFSLKKGAA (GMAALPRLIAFTSEHSHFSLKKGAA) [amino acid sequence (I), amino acid residues 266–290 of the human GAD 65]
proliferation in the presence of the DR B1 allele 0401 and 0101 or/and 1601 ([2]; T cell line 6/7): proliferates
proliferation in the presence of the DR B1 allele 0401 [3]: proliferates

B1: SW-GAD: porcine GAD (glutamic acid decarboxylase from pig brain) used as antigen (protein)
chain: MASSTPSSSATSSNAGPDPNTTNLRPTTYDTWCGVAHGCTRKLGLKICGFLQRTNSLEEKSRLVSAFKERQSSKNLLSCENSDRDGRFRRTETDFSNLFARDLLPAKNGEEQTVQFLLEVVDILLNYVRKTFDRSTKVLDFHHPHQLLEGMEGFNLELSDHPESLEQILVDCRDTLKYGVRTGHPRFFNQLSTGLDIIGLAGEWLTSTANTNMFTYEIAPVFVLMEQITLKKMREIVGWSNKDGDGIFSPGGAISNMYSIMAARYKYFPEVKTKGMAAVPKLVLFTSEHSHYSIKKAGAALGFGTDNVILIKCNERGKIIPADLEAKILEAKQKGYIPLYVNATAGTTVYGAFDPIQEIADICEKYNLWLHVDAAWGGGLLMSRKHRHKLSGIERADSVTWNPHKMMGVLLQCSAILVKEKGILQGCNQMCAGYLFQPDKQYDVSYDTGDKAIQCGRHVDIFKFWLMWKAKGTVGFENQINKCLELAEYLYAKIKNREEFEMVFDGEPEHTNVCFWYIPQSLRGVPDSPERREKLHRVAPKIKALMMESGTTMVGYQPQGDKANFFRMVISNPAATQSDIDFLIEEIERLGQDL
cpm SW-GAD (3H-thymidine incorporation) [6]: 9373 cpm
cpm SW-GAD (3H-thymidine incorporation) [7]: 5222 cpm
